Assay results taken from PMC11091220, “Metabolism-driven in vitro/in vivo disconnect of an oral ERɑ VHL-PROTAC” (Communications Biology, 2024).
Several values for one entry are separate records, joined by “and”; a condition that tells them apart may be missing. Equal values may be shown once. Read-outs that look alike come from different tables or passages of the source.

Tests used:
[1] = target: T1, recombinant human ERα ligand binding domain (LBD) (Homo sapiens, UniProt P03372); assay: ERα binding assay (LanthaScreen TR-FRET competition)
T1 construct: purchased Invitrogen PV4543
T1 sequence (P03372 311-547 limits assumed): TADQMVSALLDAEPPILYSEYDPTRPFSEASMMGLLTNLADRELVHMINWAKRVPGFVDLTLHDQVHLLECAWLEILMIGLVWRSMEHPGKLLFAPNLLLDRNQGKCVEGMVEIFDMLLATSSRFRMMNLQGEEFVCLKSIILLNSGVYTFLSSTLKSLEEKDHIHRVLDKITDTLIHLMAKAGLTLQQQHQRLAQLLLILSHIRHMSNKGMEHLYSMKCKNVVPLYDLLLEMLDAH
Description: The ability of compounds to bind to isolated ERα Ligand binding domain (ERα–LBD (GST)) was assessed in competition assays using a LanthaScreenTM Time-Resolved Fluorescence Resonance Energy Transfer (TR-FRET) detection end-point. For the LanthaScreen TR-FRET endpoint, a suitable fluorophore (Fluormone ES2, Product code P2645) and recombinant human ERα ligand binding domain (LBD) (product code PV4543) were purchased from Invitrogen and used to measure compound binding. A terbium-labelled anti-GST antibody (Product code PV3551) is used to indirectly label the receptor by binding to its GST tag, and competitive binding is detected by a test compounds’ ability to displace the fluorescent ligand resulting in a loss of TR-FRET signal between the Tb-anti-GST antibody and the tracer. The assay was performed with all reagent additions carried out using the Beckman Coulter BioRAPTR FRD microfluidic workstation: […]

[2] = target: T2, ERα (Homo sapiens, UniProt P03372); assay: ERα high throughput imaging degradation assay in MCF7 cells; type: cell-based; settings: for Dmax: MCF7; for DC50: MCF7 cells, 20 to 24 hours; for Degradation vs fulvestrant: listed as Cmp 7
T2 construct: endogenous in cells; host or cells: MCF7 (also MCF7 engineered to express Cas9)
T2 sequence (P03372 1-595): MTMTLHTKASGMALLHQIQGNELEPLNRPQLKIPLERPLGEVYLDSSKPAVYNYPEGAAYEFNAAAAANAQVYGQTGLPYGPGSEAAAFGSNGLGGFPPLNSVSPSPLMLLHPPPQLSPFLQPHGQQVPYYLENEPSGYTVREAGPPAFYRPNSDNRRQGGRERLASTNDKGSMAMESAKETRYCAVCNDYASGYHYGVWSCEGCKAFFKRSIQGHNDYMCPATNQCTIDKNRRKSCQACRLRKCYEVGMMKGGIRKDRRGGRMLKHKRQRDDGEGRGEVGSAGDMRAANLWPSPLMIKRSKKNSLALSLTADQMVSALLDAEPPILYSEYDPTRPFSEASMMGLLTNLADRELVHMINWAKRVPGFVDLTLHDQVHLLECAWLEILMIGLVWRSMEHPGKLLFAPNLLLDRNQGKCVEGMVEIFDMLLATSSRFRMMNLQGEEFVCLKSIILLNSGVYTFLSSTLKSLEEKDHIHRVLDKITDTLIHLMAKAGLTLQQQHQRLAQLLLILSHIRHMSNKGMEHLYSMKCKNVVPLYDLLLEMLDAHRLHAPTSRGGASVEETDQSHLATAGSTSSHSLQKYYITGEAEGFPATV
Description: Cells were fixed, permeabilised and stained with anti-ERα (rabbit clone SP1, Thermo) and anti-PR (mouse clone PgR 636, Dako) antibodies followed by secondary AlexaFluor 594 goat anti-rabbit and AlexaFluor 488 goat anti-mouse IgG antibodies. Imaging was using the Thermo Cellinsight scanner and average fluorescence intensity was analysed using Genedata.

[3] = Mouse hepatocyte intrinsic clearance; type: in vitro ADME; settings: for hepatocyte CLint at 1 µM: male, CD-1, mouse, hepatocytes
Description: Livers from CD-1 male mice weighing 30-35 g were digested and perfused using D-Hanks solution containing EDTA or collagenase. Once digested the liver was transferred to a petri dish and the hepatocytes were prepared by washing and centrifuging with a Leibovitz-15 medium containing 50% isotonic percoll. A cell viability >80% was required to progress the cells. The test compound was prepared to 10 mM in 100% DMSO and further diluted to 100 μM in 100% acetonitrile. The hepatocyte incubations were prepared in Leibovitz’s L-15 Medium pH 7.4 containing 1 million hepatocytes/mL and a final compound concentration of 1 µM. Cell viability was determined using a Cellometer Vision and >80% cell viability was required to proceed with the compound incubation. The compound/cell solution (250 µL) was incubated for 2 h at 37 °C and shaken at 900 rpm on an Eppendorf Thermomixer Comfort plate shaker. Samples (20 µL) were taken at 0.5, 5, 15, 30, 45, 60, 80, 100, and 120 min and quenched with 100 μL of 100% ice-cold acetonitrile. Samples were shaken at 800 rpm for 2 min and centrifuged at 4000 rpm for 20 min at 4 °C to pellet precipitated protein. The supernatant fraction was diluted 1:5 with deionised water, shaken at 1000 rpm for 2 min, and further diluted 1:1 with deionised water. Samples were analysed by LC-MS/MS[17].

[4] = target: ESR1-Nanoluciferase fusion protein (Homo sapiens, UniProt P03372); assay: ERα nanoluciferase degradation assay; type: cell-based; settings: for DC50: 24 hours, read-out: ERα nano-luciferase degradation DC50; for IC50: Table 1 source data, mean, read-out: ERa nanocluciferase degradation DC50 (nM), Mean IC50; for Dmax: read-out: ERα nano-luciferase Dmax
Description: MCF7 pTRIPZ Cas9 cells stably transfected with pSMPNeo dual Luc ESR1 vector (containing ESR1-Nanoluciferase fusion protein/reporter and a Firefly luciferase reporter) were seeded into T175 flasks and incubated for 48 hours in RPMI 1640 media containing 10% (v/v) foetal bovine serum (FBS) and 2 mM L-Glutamine. The cells were then seeded at 20000 cells/well into 384-well plates containing compounds at concentrations ranging from 3.125 µM to 15.9 pM. Following 24 hours incubation (37 °C, 5% CO2), media was removed and ONE-Glow^TM EX luciferase reagent (Promega) was added to each well. Firefly luminescence was measured after 5 minutes using an Envision (PerkinElmer). NanoDLR^TM Stop and Glo® reagent (Promega) was added and incubated for ten minutes (room temperature), before measuring Nano luminescence using the Envision. Wells containing vehicle or 3 µM Fulvestrant were used to normalise data, and degradation of ESR1-Nanoluciferase was analysed using Genedata Screener.

[5] = Table S4 source data, mean, read-out: ERa binding, Mean
[6] = Table S4 source data, read-out: ERa degradation, Dmax (%)
[7] = pH 7.4, read-out: muHeps (mouse hepatocytes) clearance
[8] = mean ± s.d., read-out: ERα binding IC50
[9] = 0% vehicle control, 100% fulvestrant, read-out: ERα imaging Dmax
[10] = MCF7, read-out: ERα imaging Dmax, 0% vehicle control, 100% fulvestrant

Sequence of ESR1-Nanoluciferase fusion protein (P40337 whole entry, one chain of several, the tested form may be a part): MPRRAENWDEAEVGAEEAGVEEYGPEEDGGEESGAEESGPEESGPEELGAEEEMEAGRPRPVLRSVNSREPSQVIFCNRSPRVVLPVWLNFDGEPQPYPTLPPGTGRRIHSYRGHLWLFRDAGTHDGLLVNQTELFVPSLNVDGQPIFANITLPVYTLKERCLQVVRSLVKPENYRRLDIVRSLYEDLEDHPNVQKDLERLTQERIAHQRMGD

## Cc1ncsc1-c1ccc(CNC(=O)[C@@H]2C[C@@H](O)CN2C(=O)[C@@H](NC(=O)COCCCOCCOc2cc(F)c([C@@H]3c4[nH]c5ccccc5c4C[C@@H](C)N3CC(C)(C)F)c(F)c2)C(C)(C)C)cc1 [Compound 10]
[1]; [5]
  IC50: 0.5 nM
[2]; [6]
  Dmax: 100%
[2]
  DC50: 0.4 nM
[3]; pH 7.4, mouse hepatocytes, Table S4 source data, read-out: muHeps, Mean Clint (mL/min/10^6 cells)
  hepatocyte CLint at 1 µM: 19 µL/min/1e6 cells
[3]; [7]
  hepatocyte CLint at 1 µM: 20 ± 1 µL/min/1e6 cells

## Cc1ncsc1-c1ccc(CNC(=O)[C@@H]2C[C@@H](O)CN2C(=O)[C@@H](NC(=O)COCCOc2cc(F)c([C@@H]3c4[nH]c5ccccc5c4C[C@@H](C)N3CC(C)(C)F)c(F)c2)C(C)(C)C)cc1 [Compound 1]
[1]; [8]
  IC50: 1.3 nM
[2]; [9]
  Dmax: 89 ± 1%
[2]
  DC50: 0.6 ± 1.2 nM
[3]; [7]
  hepatocyte CLint at 1 µM: 22 µL/min/1e6 cells

## Cc1ncsc1-c1ccc(CNC(=O)[C@@H]2C[C@@H](O)CN2C(=O)[C@@H](NC(=O)COCCOCCCCOc2cc(F)c([C@@H]3c4[nH]c5ccccc5c4C[C@@H](C)N3CC(C)(C)F)c(F)c2)C(C)(C)C)cc1 [Compound 9]
[1]; [5]
  IC50: 0.6 nM
[2]
  DC50: 0.5 ± 0.1 nM
[2]; Table S4 source data
  ERa degradation, Dmax (%): 100%
[3]; mouse hepatocytes, Table S4 source data
  muHeps, Mean Clint (mL/min/10^6 cells): 14 mL/min/10^6 cells

## Cc1ncsc1-c1ccc(CNC(=O)[C@@H]2C[C@@H](O)CN2C(=O)[C@@H](NC(=O)C2(OCCCOCCCOc3cc(F)c([C@@H]4c5[nH]c6ccccc6c5C[C@@H](C)N4CC(C)(C)F)c(F)c3)CC2)C(C)(C)C)cc1 [Compound 13]
[1]; [5]
  IC50: 1 nM
[2]; [6]
  Dmax: 96%
[2]
  DC50: 2 nM

## Cc1ncsc1-c1ccc(CNC(=O)[C@@H]2C[C@H](O)CN2C(=O)[C@@H](NC(=O)COCCCOCCCOc2cc(F)c([C@@H]3c4[nH]c5ccccc5c4C[C@@H](C)N3CC(C)(C)F)c(F)c2)C(C)(C)C)cc1 [Compound 7]
[1]; [8]
  IC50: 1 nM
[2]; Log M -6.5, MCF7, 24 h
  Degradation vs fulvestrant: 64.0% and 68.3%
[2]; Log M -7.0
  Degradation vs fulvestrant: 68.3% and 71.6% and 59.3% and 58.8%
[2]; Log M -7.5
  Degradation vs fulvestrant: 65.0% and 59.3% and 59.1% and 57.9%
[2]; Log M -7.9
  Degradation vs fulvestrant: 65.6% and 48.2% and 57.7% and 56.0%
[2]; Log M -8.5
  Degradation vs fulvestrant: 49.3% and 36.8% and 53.9% and 47.6%
[2]; Log M -9.0
  Degradation vs fulvestrant: 32.2% and 32.7% and 45.9% and 42.5%
[2]; [10]
  Dmax: ~65%
[2]
  DC50: 3.1 nM
[4]
  DC50: > 3000 nM
  IC50: > 3000 nM

## Cc1ncsc1-c1ccc(CNC(=O)[C@@H]2C[C@@H](O)CN2C(=O)[C@@H](NC(=O)COCc2cccc(CCCOc3cc(F)c([C@@H]4c5[nH]c6ccccc6c5C[C@@H](C)N4CC(C)(C)F)c(F)c3)c2)C(C)(C)C)cc1 [Compound 15]
[2]; [6]
  Dmax: 106%
[2]
  DC50: 14 nM

## Cc1ncsc1-c1ccc(CNC(=O)[C@@H]2C[C@@H](O)CN2C(=O)[C@@H](NC(=O)COCCCc2cccc(COc3cc(F)c([C@@H]4c5[nH]c6ccccc6c5C[C@@H](C)N4CC(C)(C)F)c(F)c3)c2)C(C)(C)C)cc1 [Compound 14]
[2]; [6]
  Dmax: 103%
[2]
  DC50: 4.9 nM

## Cc1ncsc1-c1ccc(CNC(=O)[C@@H]2C[C@@H](O)CN2C(=O)[C@@H](NC(=O)COCCN2CCN(CCOc3cc(F)c([C@@H]4c5[nH]c6ccccc6c5C[C@@H](C)N4CC(C)(C)F)c(F)c3)CC2)C(C)(C)C)cc1 [Compound 6]
[1]; [8]
  IC50: 1.3 nM
[2]; [10]
  Dmax: 100 ± 0.5%
[2]
  DC50: 0.5 ± 0.4 nM
[4]
  DC50: 46 ± 27 nM
  IC50: 46 nM
  Dmax: 88 ± 1%
[3]; [7]
  hepatocyte CLint at 1 µM: 11 µL/min/1e6 cells

## Cc1ncsc1-c1ccc(CNC(=O)[C@@H]2C[C@@H](O)CN2C(=O)[C@@H](NC(=O)COCCOCCOCCOCCOc2cc(F)c([C@@H]3c4[nH]c5ccccc5c4C[C@@H](C)N3CC(C)(C)F)c(F)c2)C(C)(C)C)cc1 [Compound 4]
[1]; [8]
  IC50: 6.3 nM
[2]; [9]
  Dmax: 101%
[2]
  DC50: 3.2 nM
[3]; [7]
  hepatocyte CLint at 1 µM: 41 µL/min/1e6 cells

## Cc1ncsc1-c1ccc(CNC(=O)[C@@H]2C[C@@H](O)CN2C(=O)[C@@H](NC(=O)COCCOCCOc2cc(F)c([C@@H]3c4[nH]c5ccccc5c4C[C@@H](C)N3CC(C)(C)F)c(F)c2)C(C)(C)C)cc1 [Compound 2]
[1]; [8]
  IC50: 0.6 nM
[2]; [9]
  Dmax: 94%
[2]
  DC50: 0.8 nM
[3]; [7]
  hepatocyte CLint at 1 µM: 40 µL/min/1e6 cells

## Cc1ncsc1-c1ccc(CNC(=O)[C@@H]2C[C@@H](O)CN2C(=O)[C@@H](NC(=O)COCCOCCOCCOc2cc(F)c([C@@H]3c4[nH]c5ccccc5c4C[C@@H](C)N3CC(C)(C)F)c(F)c2)C(C)(C)C)cc1 [Compound 3]
[1]; [8]
  IC50: 0.3 nM
[2]; [10]
  Dmax: 99 ± 2%
[2]
  DC50: 0.3 ± 0.1 nM
[4]
  DC50: 3.1 nM
  IC50: 3.1 nM
  Dmax: 124%
[3]; [7]
  hepatocyte CLint at 1 µM: 31 µL/min/1e6 cells
